This note sets out measurements from patent US20250339462A1, “CANCER TREATMENT USING ULTRA-HIGH CONCENTRATION GASEOUS NITRIC OXIDE AND A CHECKPOINT INHIBITOR” (Beyond Air, Inc., priority 2022, published 2025).

“Also recorded” adds a separate entry of the source.

For assay [1], the system named is 4T1 tumor-bearing mice. Put plainly: 4T1 breast cancer model, UNO/Anti-CTLA-4 Repeated dose study. The class given is in vivo, mouse. As to the method: (§1) Preparation of 4T1 cells: Cancer cell suspension, in Hanks' Balanced Salt Solution (HBSS) (Biological Industries, Israel), at a concentration of 5.0×10^6 cells/ml was freshly prepared on the day of the cancer model induction. Cells were grown to a 70-80% confluency and harvested using trypsin. The cells were centrifuged at 1,200 revolutions per minute (rpm)—241 G for 8 minutes, then the pellet was re-suspended in 1 ml of HBSS. The cells were counted using an automated cell counter and a suspension with a concentration of 5.0×10^6 cells/ml was prepared. Cell viability must be above 90% before cell inoculation to the mice, otherwise new cells will need to be prepared. At the point of inoculation, cells will be at passage 8 at most. The cell suspension was then aspirated into a 1 ml syringe with a 27 G needle, for subcutaneous (s.c.) injection. All injection volume was used and was not re-introduced into the stock solution.
(§2) Inoculation of 4T1 cancer cells to mice—Cancer cell suspension at a concentration of 5.0×10^6 cells/ml was inoculated to the right flank of animals at a volume of 100 μl per mouse. Female Balb/c mice were inoculated with 100 μl of 5.0×10^6 4T1 cells/ml. Administration was performed as soon as possible following cell preparation and after manual shaking prior to withdrawal of cell suspension. Injections were performed using a 1 ml syringe and a 27 G needle where withdrawal is done without the needle.
(§3) UNO and N2 treatment—On the day of treatment, mice were anesthetized by an intraperitoneal (i.p.) injection of 100 mg/kg of ketamine and 10 mg/kg of xylazine hydrochloride solution. Tumor-bearing mice were treated with either N2 or UNO at 50,000 ppm or 100,000 ppm. UNO at 50,000 ppm was administered intratumorally by a 23 G needle for 10 minutes, at 0.2 LPM and 2 bar exit pressure. UNO at 100,000 ppm was administered intratumorally by a 23 G needle for 2 minutes, at 0.2 LPM and 2 bar exit pressure. After treatment, all mice were warmed and closely monitored until complete recovery was observed.
Injection of anti-CTLA-4—Anti-CTLA-4 was administered up to 5 times intraperitoneally (i.p.) at a dose of 5 mg/kg, i.p., using a 1 ml syringe with a 27 G needle. The injection was administered to approximately the same location each time.
UNO/Anti-CTLA-4 Repeated dose study—Balb/c mice (60) were inoculated with mouse breast cancer carcinoma (4T1) cells injected subcutaneously (s.c.) to the right flank. […]
(§4) Primary tumor volume progression was monitored twice a week by measuring the tumor using a digital caliper calculated as: […]
Mice survival was evaluated. Mice that reached a tumor volume of ≥1500 mm^3 and/or a score of 12 were humanely euthanized, and the time of death was recorded. Metastases development was evaluated postmortem.

Assay [2] has as its system 4T1 tumor-bearing mice. The experiment in a line: 4T1 breast cancer model, UNO/Anti-PD-1 Repeated Dose Study. The class given is in vivo, mouse. As to the method:
as §1, §2, §3
Injection of anti-PD-1—Anti-PD-1 was administered 5 times intraperitoneally (i.p.) at a dose of 10 mg/kg, i.p., using a 1 ml syringe with a 27 G needle. The injection was administered to approximately the same location each time.
UNO/Anti-PD-1 Repeated Dose Study—Balb/c mice (96) were inoculated with mouse breast cancer carcinoma (4T1) cells injected subcutaneously (s.c.) to the right flank. When the average tumor volume reached 50-150 mm^3, mice assigned to gas treatment groups were treated with 5% UNO (50,000 ppm), stabilized in N2, injected intratumorally (i.t.) for 10 minutes at a flow rate of 0.2 liters per minute (LPM) or with N2 injected intratumorally (i.t.) for 10 minutes at a flow rate of 0.2 LPM as a control. The mice were administered the gas treatment, e.g., UNO or N2, twice, on day 9 post-tumor cells inoculation and, 5 days later, on day 14 post-tumor inoculation. Mice assigned to the combination treatment group (i.e., gas+anti-mPD-1) were administered anti-mPD-1 injections starting from the day of first gas treatment and administered every three days thereafter, with a final dose of anti-mPD-1 injected 12 days after the first gas treatment.
as §4
where Diameter 1 is length, Diameter 2 is width, and Diameter 3 is height.
Mice receiving two UNO treatments were divided into two groups: in the first group, the primary tumors were surgically removed 15 days after the first UNO treatment, while, in the second group, the tumors were not resected. Mice survival was evaluated. Mice that reached a tumor volume of ≥1500 mm^3 and/or a score of 12 were humanely euthanized, and the time of death was recorded. Metastases development was evaluated postmortem.

[3] abbreviates: with primary tumor resection (FIG. 13B), Cox model.

With `[N]=O` [UNO, nitric oxide], in the assay with 4T1 tumor-bearing mice [1] (FIG. 14C, Cox model), the “Survival hazard ratio vs anti-mCTLA-4” value is 0.16 and the “Survival hazard ratio vs untreated” value was 0.31. Moreover, the “Mice survival vs anti-mCTLA-4 monotherapy” value in the assay with 4T1 tumor-bearing mice [1] (UNO twice (FIG. 14C)) is recorded as “prolonged survival; also recorded: significantly prolongs mice survival”. Moreover, the “Tumors smaller compared to only anti-mCTLA-4” value in the assay with 4T1 tumor-bearing mice [1] (only UNO, 100,000 ppm 2 min twice, day 13 after first UNO treatment, P=0.1158) is 12.9%. For the same compound, the “Primary tumor size vs untreated or only anti-mPD-1” value in the assay on 4T1 tumor-bearing mice [2] (repeated UNO dosing 50,000 ppm 10 min twice, 14 days after first UNO treatment (FIG. 12B)) is on record as “significantly smaller”. Further, the “Survival (Kaplan-Meier) vs anti-mPD-1 alone, untreated or N2 controls” value in the assay with 4T1 tumor-bearing mice [2] (repeated doses of UNO) is on record as “tendency toward prolonged survival”. In the assay with 4T1 tumor-bearing mice [2] (repeated doses of UNO without anti-mPD-1, 14 days after first UNO treatment), the “Tumors smaller compared to anti-mPD-1 alone group” value was 21.0%. In the assay with 4T1 tumor-bearing mice [2] (setting [3]), the “Survival hazard ratio vs anti-mPD-1” value was determined as 1.58 and the “Survival hazard ratio vs untreated” value came to 0.69. In the assay on 4T1 tumor-bearing mice [2] (without resection of primary tumor (FIG. 13A), Cox model), the “Survival hazard ratio vs untreated” value came out at 0.63.
